Results on 60 compounds are retold here after patent publication US8163737B2 (Vertex Pharmaceuticals Incorporated, priority 2006, dated 2012).

pIC50: −log10 of the molar value. A value given as a limit tells only on which side of the number the result lay.

The target of this assay is endogenous CGRP receptor (Homo sapiens, UniProt O60894+Q16602). Nature of the assay: CGRP functional antagonism using SK-N-MC-BLA (4C10), β-lactamase transcriptional reporter assay. Type of assay: cell-based. The settings on record: SK-N-MC (4C10) cells, inhibition of β-lactamase expression in the presence of 200 pM CGRP. Background: Reporter assays use an easily measured gene product as a stand-in for the process of interest.
Sequence of endogenous CGRP receptor (Q16602 23-461): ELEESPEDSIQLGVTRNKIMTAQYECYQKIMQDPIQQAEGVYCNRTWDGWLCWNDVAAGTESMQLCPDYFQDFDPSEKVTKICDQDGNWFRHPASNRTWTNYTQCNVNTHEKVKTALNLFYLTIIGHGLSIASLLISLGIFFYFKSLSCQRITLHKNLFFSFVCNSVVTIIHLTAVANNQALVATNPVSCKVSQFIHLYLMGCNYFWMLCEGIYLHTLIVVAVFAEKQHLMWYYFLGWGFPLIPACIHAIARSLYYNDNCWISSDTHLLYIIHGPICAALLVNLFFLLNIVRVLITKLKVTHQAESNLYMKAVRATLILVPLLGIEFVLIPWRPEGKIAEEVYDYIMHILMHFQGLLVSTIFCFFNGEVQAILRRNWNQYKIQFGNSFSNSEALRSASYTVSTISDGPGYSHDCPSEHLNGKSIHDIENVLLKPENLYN
Sequence of endogenous CGRP receptor (O60894 27-148): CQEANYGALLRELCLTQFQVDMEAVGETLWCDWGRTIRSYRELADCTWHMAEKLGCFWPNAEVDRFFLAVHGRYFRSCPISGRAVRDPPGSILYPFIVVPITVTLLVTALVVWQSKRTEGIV
Take `CN(C)C1CCN(c2c(F)cccc2[C@H]2S[C@@H](CC(=O)N3CCC(n4c(=O)[nH]c5ncccc54)CC3)C(=O)N2CCC(C)(C)C)C1` (stereo partly drawn) [Compound 455]: the negative logarithm of the IC50 (pIC50) (in general, the IC50 on a negative log10 scale, so that one unit is a factor of ten) is 5.30 to 6.00.

For `CCCC1SC(CC(=O)N2CCC(N3Cc4ccccc4NC3=O)CC2)C(=O)N1CCC(C)C` (stereo not drawn) [Compound 192], the pIC50 is > 6.00.

For the compound `CC(C)N1CCN(c2c(F)cccc2[C@@H]2S[C@](C)(CC(=O)N3CCC(N4CCc5ccccc5NC4=O)CC3)C(=O)N2CCC(C)(C)C)CC1` [Compound 430], the negative logarithm of the IC50 (pIC50) is < 5.30.

For `CCCN1C(=O)C(CC(=O)N2CCC(N3Cc4ccccc4NC3=O)CC2)SC1c1ccccc1` (stereo not drawn) [Compound 269], the pIC50 is 5.30 to 6.00.

Turning to `CC(C)(C)CCN1C(=O)C(CC(=O)N2CCC(N3CCc4ccccc4NC3=O)CC2)SC12c1ccccc1-c1ccccc12` (stereo not drawn) [Compound 310], the pIC50 is > 6.00.

As for `CC(=O)N1CC2(CCN(C(=O)CC3SC(c4ccccc4)N(CCC(C)C)C3=O)CC2)c2cc(C(C)C)ccc21` (stereo not drawn) [Compound 27], the pIC50 is < 5.30.

In the case of `CN1CCN(c2ccccc2[C@@H]2S[C@](C)(CC(=O)N3CCC(n4c(=O)[nH]c5ncccc54)CC3)C(=O)N2CCC(C)(C)C)CC1` [Compound 378], the pIC50 is > 6.00.

For the compound `CC(C)CCN1C(=O)C(CC(=O)N2CCC(N3Cc4ccccc4NC3=O)CC2)SC1c1ccc(S(C)(=O)=O)cc1` (stereo not drawn) [Compound 5], the pIC50 is 5.30 to 6.00.

Turning to `COc1ccc(C2SC(CC(=O)N3CCC(N4Cc5ccccc5NC4=O)CC3)C(=O)N2CCC(C)C)cc1OC` (stereo not drawn) [Compound 228], the negative-log IC50 (pIC50) is 5.30 to 6.00.

Regarding `CC(C)CCN1C(=O)C(CC(=O)N2CCC(N3Cc4ccccc4NC3=O)CC2)SC1c1ccc(C(C)(C)C)cc1` (stereo not drawn) [Compound 197], the negative-log IC50 (pIC50) is < 5.30.

As for `CN1CCN(c2cc(F)ccc2C2SC(CC(=O)N3CCC(N4Cc5ccccc5NC4=O)CC3)C(=O)N2CCC(C)(C)C)CC1` (stereo not drawn) [Compound 360], the negative-log IC50 (pIC50) was > 6.00.

On to `Cc1c(F)cccc1C1SC(CC(=O)N2CCC(N3CCc4ccccc4NC3=O)CC2)C(=O)N1CCC(C)C` (stereo not drawn) [Compound 26], for which the pIC50 was > 6.00.

`O=C(CC1SC(C2CCCCC2)N(c2ccc(N3CCOCC3)cc2)C1=O)N1CCC(n2c(=O)[nH]c3ncccc32)CC1` (stereo not drawn) [Compound 425]: the pIC50 was > 6.00.

`CC(C)(C)CCN1C(=O)[C@H](CC(=O)N2CCC(n3nnc4ccccc43)CC2)SC1c1cccc(F)c1N1CCN(C(C)(C)C)CC1` (stereo partly drawn) [Compound 451]: the pIC50 was 5.30 to 6.00.

Take `CC(C)CCN1C(=O)C(CC(=O)N2CCC(N3Cc4ccccc4NC3=O)CC2)SC1C1CCCCC1` (stereo not drawn) [Compound 95]: the negative logarithm of the IC50 (pIC50) is > 6.00.

On to `O=C(CC1SC(c2ccccc2)N(CC2CCCO2)C1=O)N1CCC(N2CCc3ccccc3NC2=O)CC1` (stereo not drawn) [Compound 83], for which the negative logarithm of the IC50 (pIC50) was > 6.00.

As to `CC(C)CCN1C(=O)C(CC(=O)N2CCC(N3CCc4ccccc4NC3=O)CC2)SC1c1ccccc1N1CCCCC1` (stereo not drawn) [Compound 215], the negative logarithm of the IC50 (pIC50) is > 6.00.

Consider `C=CCN1C(=O)C(CC(=O)N2CCC(N3Cc4ccccc4NC3=O)CC2)SC1c1ccccc1` (stereo not drawn) [Compound 254], for which the pIC50 is 5.30 to 6.00.

Take `CC(C)CCN1C(=O)C(CC(=O)N2CCC(N3CCc4ccccc4NC3=O)CC2)SC1C1CCCOC1` (stereo not drawn) [Compound 239]: the pIC50 was > 6.00.

As for `O=C(CC1SC(c2ccccc2F)N(CC2CCCCC2)C1=O)N1CCC(N2CCc3ccccc3NC2=O)CC1` (stereo not drawn) [Compound 164], the pIC50 is 5.30 to 6.00.

On to `CC(=O)Nc1ccc(C2SC(CC(=O)N3CCC(N4Cc5ccccc5NC4=O)CC3)C(=O)N2CCC(C)C)cc1` (stereo not drawn) [Compound 213], for which the pIC50 is 5.30 to 6.00.

Consider `CC(C)CCN1C(=O)C(CC(=O)N2CCC(N3Cc4ccccc4NC3=O)CC2)SC1c1c(F)cccc1Cl` (stereo not drawn) [Compound 166], for which the negative logarithm of the IC50 (pIC50) is > 6.00.

As for `CC(C)CCN1C(=O)C(CC(=O)N2CCC(N3Cc4ccccc4NC3=O)CC2)SC1c1ccc(Cl)cc1` (stereo not drawn) [Compound 158], the negative logarithm of the IC50 (pIC50) is 5.30 to 6.00.

As to `CC(C)CCN1C(=O)C(CC(=O)N2CCC(N3CCc4ccccc4NC3=O)CC2)SC1c1cccc(C(F)(F)F)c1F` (stereo not drawn) [Compound 23], the pIC50 was > 6.00.

Turning to `CC(C)CCN1C(=O)C(CC(=O)N2CCC(N3Cc4ccccc4NC3=O)CC2)SC1c1cc(C(F)(F)F)ccc1F` (stereo not drawn) [Compound 136], the pIC50 is > 6.00.

`CC(C)CCN1C(=O)C(CC(=O)N2CCC(N3Cc4ccccc4NC3=O)CC2)SC12CCOCC2` (stereo not drawn) [Compound 196]: the pIC50 is 5.30 to 6.00.

For `CC(C)(C)CCN1C(=O)C(CC(=O)N2CCC(N3CCc4ccccc4NC3=O)CC2)SC1c1cccc2cc[nH]c12` (stereo not drawn) [Compound 130], the pIC50 is 5.30 to 6.00.

Take `CC(C)(C)CCN1C(=O)C(CC(=O)N2CCC(N3Cc4ccccc4NC3=O)CC2)SC12CCSCC2` (stereo not drawn) [Compound 31]: the pIC50 is > 6.00.

As to `COC(=O)[C@@H](CC(C)C)N1C(=O)C(CC(=O)N2CCC(N3Cc4ccccc4NC3=O)CC2)SC1c1ccccc1` (stereo partly drawn) [Compound 178], the pIC50 was 5.30 to 6.00.

For `COC(=O)[C@@H](CC1CCCCC1)N1C(=O)C(CC(=O)N2CCC(N3CCc4ccccc4NC3=O)CC2)SC1c1ccccc1` (stereo partly drawn) [Compound 243], the pIC50 is 5.30 to 6.00.

Consider `COCC(C)N1C(=O)C(CC(=O)N2CCC(N3Cc4ccccc4NC3=O)CC2)SC1c1ccccc1` (stereo not drawn) [Compound 250], for which the negative logarithm of the IC50 (pIC50) is < 5.30.

Consider `COc1cccc(C2SC(CC(=O)N3CCC(N4Cc5ccccc5NC4=O)CC3)C(=O)N2CCC(C)C)c1` (stereo not drawn) [Compound 139], for which the negative logarithm of the IC50 (pIC50) is 5.30 to 6.00.

For `CC(C)(C)CCN1C(=O)[C@H](CC(=O)N2CCC(n3c(=O)[nH]c4ncccc43)CC2)S[C@H]1c1cccc(F)c1N1CCC(N2CCCCC2)CC1` [Compound 441], the pIC50 is > 6.00.

Regarding `CN1CCN(c2c(F)cccc2C2SC(CC(=O)N3CCC(N4Cc5ccccc5NC4=O)CC3)C(=O)N2CCC(C)(C)C)CC1` (stereo not drawn) [Compound 323], the pIC50 was > 6.00.

As to `CN1CCN(c2c(Cl)cccc2C2SC(CC(=O)N3CCC(N4CCc5ccccc5NC4=O)CC3)C(=O)N2CCC(C)(C)C)CC1` (stereo not drawn) [Compound 356], the negative-log IC50 (pIC50) is > 6.00.

Consider `CC(C)CCN1C(=O)C(CC(=O)N2CCC(N3CCc4ccccc4NC3=O)CC2)SC1c1c(Cl)cccc1Cl` (stereo not drawn) [Compound 89], for which the negative logarithm of the IC50 (pIC50) is > 6.00.

Turning to `CCCN1C(=O)C(CC(=O)N2CCC(N3CCc4ccccc4NC3=O)CC2)SC1c1ccccc1` (stereo not drawn) [Compound 38], the pIC50 was > 6.00.

Regarding `CCCCN1CCN(c2ccccc2C2SC(CC(=O)N3CCC(n4c(=O)[nH]c5ncccc54)CC3)C(=O)N2CCC(C)(C)C)CC1` (stereo not drawn) [Compound 366], the negative logarithm of the IC50 (pIC50) was > 6.00.

On to `CC(C)(C)CCN1C(=O)[C@H](CC(=O)N2CCC(N3CCc4ccccc4NC3=O)CC2)SC1c1cccc(F)c1N1CCNCC1` (stereo partly drawn) [Compound 399], for which the pIC50 was < 5.30.

Take `CN1CCN(c2ccccc2C2SC(CC(=O)N3CCC(n4cc(-c5ccccc5)[nH]c4=O)CC3)C(=O)N2CCC(C)(C)C)CC1` (stereo not drawn) [Compound 257]: the pIC50 was > 6.00.

Regarding `Cc1cc(C)c(C2SC(CC(=O)N3CCC(N4Cc5ccccc5NC4=O)CC3)C(=O)N2CCC(C)C)c(C)c1` (stereo not drawn) [Compound 51], the pIC50 is > 6.00.

With `CC(C)(C)CCN1C(=O)C(CC(=O)N2CCC(N3CCc4ccccc4NC3=O)CC2)SC1c1ccccc1N1CCC(N2CCCCC2)CC1` (stereo not drawn) [Compound 384], the negative logarithm of the IC50 (pIC50) is < 5.30.

For the compound `O=C(CC1SC(C2CCOCC2)N(c2ccc(N3CCOCC3)cc2)C1=O)N1CCC(N2CCc3ccccc3NC2=O)CC1` (stereo not drawn) [Compound 422], the pIC50 is > 6.00.

Regarding `CN1CCN(c2cccc(C3SC(CC(=O)N4CCC(n5c(=O)[nH]c6ncccc65)CC4)C(=O)N3CCC(C)(C)C)c2)CC1` (stereo not drawn) [Compound 413], the pIC50 is > 6.00.

For `CC(C)CCN1C(=O)C(CC(=O)N2CCC(c3cc4ccccc4[nH]c3=O)CC2)SC1c1ccccc1` (stereo not drawn) [Compound 249], the pIC50 was > 6.00.

As to `CN1CCN(c2ccccc2C2SC(CC(=O)N3CCC4(CC3)CC(=O)c3ccccc3O4)C(=O)N2CCC(C)(C)C)CC1` (stereo not drawn) [Compound 332], the negative logarithm of the IC50 (pIC50) is < 5.30.

As for `CC(C)CCN1C(=O)C(CC(=O)N2CCC(N3CCc4ccccc4NC3=O)CC2)SC1[C@@H](C)c1ccccc1` (stereo partly drawn) [Compound 11], the negative-log IC50 (pIC50) was > 6.00.

As to `O=C(CC1SC(C2CCOCC2)N(c2ccccc2)C1=O)N1CCC(N2CCc3ccccc3NC2=O)CC1` (stereo not drawn) [Compound 420], the pIC50 was < 5.30.

For `CC(C)(C)CCN1C(=O)C(CC(=O)N2CCC(N3Cc4ccccc4NC3=O)CC2)SC1c1c[nH]cn1` (stereo not drawn) [Compound 305], the pIC50 is 5.30 to 6.00.

On to `CN1C(=O)C(CC(=O)N2CCC(N3Cc4ccccc4NC3=O)CC2)SC1c1ccccc1` (stereo not drawn) [Compound 273, 3,4-Dihydro-3-(1-(2-(3-methyl-4-oxo-2-phenylthiazolidin-5-yl)acetyl)piperidin-4-yl)quinazolin-2(1H)-one], for which the pIC50 is 5.30 to 6.00.

Regarding `Cc1cc(C)c(C2SC(CC(=O)N3CCC(N4CCc5ccccc5NC4=O)CC3)C(=O)N2CCC(C)C)c(C)c1` (stereo not drawn) [Compound 21], the pIC50 was > 6.00.

`CC(C)N1C(=O)C(CC(=O)N2CCC(N3CCc4ccccc4NC3=O)CC2)SC1c1ccccc1` (stereo not drawn) [Compound 24]: the pIC50 is 5.30 to 6.00.

As to `CN1CCN(c2cccc(C3SC(CC(=O)N4CCC(N5CCc6ccccc6NC5=O)CC4)C(=O)N3CCC(C)(C)C)c2)CC1` (stereo not drawn) [Compound 412], the pIC50 is > 6.00.

On to `CN(C)CCCN(C)c1ccccc1C1SC(CC(=O)N2CCC(n3c(=O)[nH]c4ncccc43)CC2)C(=O)N1CCC(C)(C)C` (stereo not drawn) [Compound 382], for which the negative logarithm of the IC50 (pIC50) is > 6.00.

Turning to `CC(C)(C)CCN1C(=O)C(CC(=O)N2CCC(N3Cc4ccccc4NC3=O)CC2)SC12c1ccccc1-c1ccccc12` (stereo not drawn) [Compound 309], the pIC50 is 5.30 to 6.00.

As for `CC(C)CCN1C(=O)C(CC(=O)N2CCC(N3Cc4ccccc4NC3=O)CC2)SC1c1ccccc1OCc1ccccc1` (stereo not drawn) [Compound 246], the pIC50 is > 6.00.

Turning to `CN1CCC(N2CCN(c3ccccc3C3SC(CC(=O)N4CCC(N5CCc6ccccc6NC5=O)CC4)C(=O)N3CCC(C)(C)C)CC2)CC1` (stereo not drawn) [Compound 379], the pIC50 was > 6.00.

For the compound `CC(C)(C)CCN1C(=O)C(CC(=O)N2CCC(N3CCc4ccccc4NC3=O)CC2)SC1c1cccc(F)c1N1CC(F)(C2CC2)C1` (stereo not drawn) [Compound 411], the pIC50 is 5.30 to 6.00.

For `CN1CCN(c2ccc(F)cc2C2SC(CC(=O)N3CCC(N4CCc5ccccc5NC4=O)CC3)C(=O)N2CCC(C)(C)C)CC1` (stereo not drawn) [Compound 352], the pIC50 is > 6.00.

In the case of `CC(C)CCN1C(=O)C(CC(=O)N2CCC(n3c(=O)[nH]c4ccccc43)CC2)SC1c1ccccc1N1CCCCC1` (stereo not drawn) [Compound 292], the pIC50 was 5.30 to 6.00.
